{
  "source": "paper PMC5467173",
  "about": "“Blood-brain-barrier spheroids as an in vitro screening platform for brain-penetrating agents” (Nature Communications, 2017)",
  "key": {"[1]": {"test_system": "BBB spheroids (astrocytes, HBVP and hCMEC/D3 cells)", "test": "Evaluation of small molecule transport into BBB spheroids using MALDI-MSI", "assay_type": "in vitro ADME, human", "conditions": "10 μM, 24 h, 37 °C; 12 μm sections; 30 μm pixel step; nspheroid=150, ntissue=2", "method": "BBB spheroids were established (using astrocytes, HBVP and hCMEC/D3 cells) for 48 h as described earlier. Approximately 150 spheroids per group were pooled into a 1.5 ml microcentrifuge tube in 1 ml of hCMEC/D3 working media. BKM120 or Dabrafenib was added into each tube at a final concentration of 10 μM and incubated for 24 h at 37 °C under constant rotation. Spheroids were washed 5 × with wash buffer (150 mM ammonium acetate in HPLC grade water, pH 7), and then transferred into an UltraFlux 0.2 ml PCR tube (BioExpress) in 200 μl of wash buffer. The spheroids were then, pooled at the bottom of the tube, and snap-frozen in a dry ice/ethanol bath. The top of the frozen tube was mounted onto a cryostat holder, and the bottom of the tube containing the spheroids was sectioned into 12 μm slices using a Microm HM550 cryostat, with the chamber and the specimen holder chilled at −26 °C. Sectioned tissues embedded in the frozen wash buffer were thaw-mounted onto indium tin oxide (ITO) coated microscopic slides (Bruker Daltonics) for MALDI-MSI, and regular positively charged glass slides for haematoxylin and eosin (H/E) staining. The tissues were allowed to dry for at least 15 min in a dessicator. […]"}, "[2]": {"conditions": "cited from earlier work", "excerpt": "Because most drugs are non-fluorescent, we explored an alternative strategy to detect drugs within the BBB spheroids using matrix-assisted laser desorption/ionization mass spectrometry imaging (MALDI-MSI)."}, "[3]": {"test_system": "BBB spheroid surface barrier", "test": "Co-incubation with high molecular weight dextran (integrity of spheroid surface barrier)", "conditions": "drug 10 μM with FITC-dextran 70 kDa 10 μg ml^−1, 24 h; 88 μm depth; nspheroid=3–6", "procedure": "Multicellular BBB spheroids were formed through co-culturing astrocytes, HBVP and either HBMEC or hCMEC/D3 as described earlier for 48 h. Spheroids were incubated with increasing concentration of VEGF-A (between 5 and 100 ng ml^−1) and 10 μg ml^−1 of TRITC-Dextran (155 kDa; Sigma-Aldrich) or FITC-Dextran (70 kDa; Sigma-Aldrich) in the appropriate working medium for 24 h at 37 °C with 5% CO2. Spheroids were washed 3 times with PBS (5 min each), transferred into a Nunc Lab-Tek II thin-glass 8-well chambered coverglass (Thermo Scientific) and imaged under a confocal microscope as described earlier. Quantification of spheroid permeability to fluorescent dextran was performed using ImageJ software (http://imagej.net/Fiji). The mean fluorescence intensity of the core of each spheroid at 88 μm depth was quantified and plotted using GraphPad Prism (version 7.0 software).\nTo examine if angiopep-2 affects the overall permeability of the spheroid surface barrier, spheroids were co-incubated with 10 μM of TAMRA-angiopep (or TAMRA-scramble) and FITC-dextran (70 kDa; 10 μg ml^−1) as described earlier for 3 h at 37 °C on a rotator. […] The mean TAMRA and FITC fluorescence intensity of the core of each spheroid at 88 μm depth was quantified using ImageJ software and plotted using GraphPad Prism."}, "[4]": {"test_system": "multicellular BBB spheroids (astrocytes, HBVP and hCMEC/D3)", "test": "Transport of fluorescently labelled peptides / CPP screen in multicellular BBB spheroids (hCMEC/D3), confocal microscopy", "assay_type": "in vitro ADME, human", "method": "Sterile 1% agarose (w/v) was prepared by adding […] of molecular biology grade agarose (Bio-rad) into 50 ml of PBS in a conical flask, and boiled in a microwave until completely dissolved. The melted agarose solution was transferred into a sterile tissue culture hood, and 50 μl of the solution was dispensed into each well of a 96-well plate while it was still hot using a multi-channel pipette, and allowed to cool/solidify (∼15 min). Primary human astrocytes, HBVP and HBMEC were released by trypsin/EDTA (Thermo Scientific) and resuspended in HBMEC working medium. The concentration of each cell type was determined using a haemocytometer. 1 × 10^3 of each cell type was seeded onto the agarose gel in each well of the 96-well plate in a 1:1:1 ratio (final volume=100 μl). Cells were placed in a humidified incubator at 37 °C with 5% CO2, and 95% natural air for 48–72 h to allow for the assembly of multicellular BBB spheroids. For spheroid formation using the immortalized hCMEC/D3 EC line: hCMEC/D3, astrocytes and HBVP were released by trypsin/EDTA and resuspended in hCMEC/D3 working medium. 1.5 × 10^3 of each cell type were seeded onto the agarose gel in each well of the 96-well plate in a 1:1:1 ratio, and spheroids were allowed to form as described above.\nAngiopep-2 (or scramble) peptide labelled with a Cy5 was added into each tube at a final concentration of 5 and 10 μM, and incubated for 3 h at 37 °C on a rotator. Spheroids were washed with PBS, fixed with 3.7% formaldehyde and imaged using a confocal microscope as described in earlier sections. […] The same methodology was applied for angiopep-2/scramble peptide labelled with a TAMRA (tetramethylrhodamine) dye. To inhibit transcytosis, spheroids were incubated with each peptide (5 μM final concentration) in cold working medium (on ice) for 3 h. For cryo-sectioning, spheroids were embedded in optimum cutting temperature compound (Tissue-Tek, Sakura Finetek, Torrance, CA), frozen on dry ice and sliced into 10 μm sections. Spheroid sections were imaged under a Nikon epi-fluorescence inverted microscope. […]"}, "[5]": {"test": "Stability in hCMEC/D3 working media containing 2% human serum", "assay_type": "in vitro ADME", "conditions": "Cy5.5-CPP 5 μM in hCMEC/D3 working media (2% human serum), 37 °C, LC-MS extracted ion current, (EICt3/EICt0) × 100", "method": "Cy5.5-angiopep and Cy5.5-scramble. Angiopep and scramble peptides (50 μM) were incubated in hCMEC/D3 working media (containing 2% human serum) at 37 °C. […] The material was resuspended in 30 μl of 50:50 water:acetonitrile containing 0.1% TFA. […] The process was repeated (n=3) for each peptide."}, "[6]": {"test_system": "multicellular BBB spheroids (astrocytes, HBVP and HBMEC)", "test": "Transport of fluorescently labelled peptides into multicellular BBB spheroids (primary HBMEC), confocal microscopy", "assay_type": "in vitro ADME, human", "procedure": "Multicellular BBB spheroids (composed of astrocytes, HBVP and HBMEC (or hCMEC/D3)) were established for 48–72 h as described earlier, and pooled into a 1.5 ml Lobind microcentrifuge tube (Eppendorf) in 1.0 ml HBMEC (or hCMEC/D3) working media. […] Spheroids were washed with PBS, fixed with 3.7% formaldehyde and imaged using a confocal microscope as described in earlier sections. The mean fluorescence intensity inside each spheroid at 88 μm depth was quantified using ImageJ software and plotted using GraphPad Prism. […] To inhibit transcytosis, spheroids were incubated with each peptide (5 μM final concentration) in cold working medium (on ice) for 3 h. For cryo-sectioning, spheroids were embedded in optimum cutting temperature compound (Tissue-Tek, Sakura Finetek, Torrance, CA), frozen on dry ice and sliced into 10 μm sections. Spheroid sections were imaged under a Nikon epi-fluorescence inverted microscope."}, "[7]": {"test_system": "hCMEC/D3 / HBVP / astrocyte triple co-culture transwell model", "assay_type": "in vitro ADME, human", "method": "Both the apical and basal sides of 24-well transwell insert (0.4 μm pore size; Greiner Bio-One, Cat. # 662,641) were coated with rat-tail collagen (5 μg ml^−1 in PBS; Olaf Pharmaceuticals, Worcester, MA) overnight at 4 °C. Each transwell was inverted, and 5 × 10^4 HBVP cells (in 50 μl pericyte medium) were seeded on the basal side of the insert. The inserts were encased in an inverted plate, and allowed to adhere in a humidified incubator for 2 h at 37 °C with 5% CO2. Inserts were then removed and placed within a 24-well plate (upright) containing 300 μl pericyte medium, ensuring that the HBVP cells on the basal side of the insert was properly submerged in the medium. […] hCMEC/D3 cells were seeded on the apical side of the insert (in 200 μl volume) in EGM-2. In a separate 24-well plate, 5.0 × 10^4 astrocytes were seeded in AGM. […] TEER measurements of inserts without cells were subtracted from TEER values obtained from inserts containing cells (measured in ohms (Ω)). […]\nAfter 84 h of co-culture in the transwell, TAMRA- angiopep-2 or TAMRA-scramble were added into the apical side of the insert at a final concentration of 10 μM. […] To assess the apical-to-basolateral permeability, the mean fluorescence intensity of the basal side of the transwell was quantified over time using ImageJ software and plotted using GraphPad Prism."}, "brain parenchyma": {"test_system": "brain parenchyma", "test": "Ex vivo imaging of angiopep-2 in mouse brain after tail vein injection", "conditions": "Cy5.5-labelled peptide, 100 μg via tail vein, mice killed after 24 h", "method": "Cy5.5-angiopep-2 or Cy5.5-scramble were diluted to a final concentration of 1 mg ml^−1 in 0.9% NaCl irrigation solution (Hospira, Lake Forest, IL). 100 μl of each peptide (total of 100 μg) was administered intravenously via tail vein injection. After 24 h, mice were killed (by CO2 asphyxiation), and immediately perfused with PBS followed by 10% formalin solution (Sigma-Aldrich). Brains were excised, and a coronal cut through the cerebral cortex was made with a sharp scalpel. The brains were washed several times with PBS containing 0.05% Tween-20, and incubated with DyLight 488 lectin (Vector Laboratories, Burlingame, CA) and Hoechst dye (Life Technologies; 1:1,000 dilution) for 1 h in PBS containing 0.02% Tween-20. This was followed by 3 washes (15 min each) with PBS containing 0.05% Tween-20. […] The brain tissue was imaged under a confocal microscope using a × 40 oil immersion objective. Z-slices captured through each spheroid (up to 100 μm-deep) were merged to generate a 2D maximum intensity projection using the ZEN blue imaging software (version 2012). Animal experiments described here are listed in the Brigham and Women’s Hospital Animal Experimentation Protocol 2016N000300 Translational Neurooncology Core (BWH IACUC approved 2016)."}},
  "data": [
    {"compound": "Nc1cc(C(F)(F)F)c(-c2cc(N3CCOCC3)nc(N3CCOCC3)n2)cn1", "note": "[BKM120]", "values": [
      {"measurement": "Drug detected in sections of BBB spheroids by MALDI-MSI", "setting": "[1]", "value": "dramatic accumulation"},
      {"measurement": "BBB penetrance", "setting": "[2]", "value": "known to cross the BBB"},
      {"measurement": "Effect on ability of BBB spheroids to restrict entry of high molecular weight dextran", "setting": "[3]", "value": "did not affect"}
    ]},
    {"compound": "CC(C)(C)c1nc(-c2cccc(NS(=O)(=O)c3c(F)cccc3F)c2F)c(-c2ccnc(N)n2)s1", "note": "[dabrafenib]", "values": [
      {"measurement": "Drug detected in sections of BBB spheroids by MALDI-MSI", "setting": "[1]", "value": "not detected"},
      {"measurement": "BBB penetrance", "setting": "[2]", "value": "limited BBB penetrance"},
      {"measurement": "Effect on ability of BBB spheroids to restrict entry of high molecular weight dextran", "setting": "[3]", "value": "did not affect"}
    ]},
    {"compound": "LRRERQSRLRRERQSR [DPV15]", "values": [
      {"measurement": "Influx rate at earlier time points (15 min–1 h)", "setting": "[4]", "value": "highest influx rate"}
    ]},
    {"compound": "RKKRRQRRR [HIV-1 Tat, established brain-penetrating standard]", "values": [
      {"measurement": "product remaining after 3 h in working media", "setting": "[5]", "value": 50, "unit": "%"}
    ]},
    {"compound": "VPALR [Bip(1), Cy5.5-labelled hydrophobic CPP from natural protein]", "values": [
      {"measurement": "Influx rate at earlier time points (15 min–1 h)", "setting": "[4]", "value": "highest influx rate"}
    ]},
    {"compound": "VSALK [Bip(2), Cy5.5-labelled hydrophobic CPP from natural protein]", "values": [
      {"measurement": "Influx rate at earlier time points (15 min–1 h)", "setting": "[4]", "value": "highest influx rate"}
    ]},
    {"compound": "angiopep-2", "values": [
      {"measurement": "Influx of TAMRA-labelled peptide on co-incubation with FITC-dextran", "setting": "[6]; 10 μM peptide, FITC-dextran 70 kDa 10 μg ml^−1, 3 h, 37 °C, 88 μm depth, nspheroid=3–6, nexperiment=3, versus scrambled peptide", "value": "significantly higher influx"},
      {"measurement": "Peptide level in the core of fixed, cryosectioned spheroids (fluorescence microscopy)", "setting": "[6]; 10 μm cryosections, epi-fluorescence", "value": "high level"},
      {"measurement": "Influx of Cy5-labelled peptide at 4 °C (transcytosis inhibited) versus 37 °C", "setting": "[6]; spheroids with primary HBMECs, 10 μM, 3 h, 88 μm depth", "value": "significantly reduced"},
      {"measurement": "Influx of Cy5-labelled peptide into spheroid (mean Cy5 intensity at 88 μm depth)", "setting": "[6]; spheroids with primary HBMECs, 5 and 10 μM, 3 h, 37 °C, confocal microscopy, compared with scrambled control, nspheroid=10, nexperiment=3", "value": "substantial influx"},
      {"measurement": "Apical-to-basolateral permeability in co-culture transwell compared to inserts with no ECs", "setting": "[7]", "value": "significantly lower permeability"},
      {"measurement": "Transwell permeability of angiopep-2 versus scrambled control", "setting": "[7]", "value": "unable to differentiate"},
      {"measurement": "Accumulation in the brain parenchyma in vivo (fluorescence of brain cryosections)", "setting": "brain parenchyma", "value": "extravasation and accumulation"}
    ]}
  ]
}
